#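 Protocol summary: plate cells (96-well), add compound at 5 concentrations, incubate 48 h, interpolate endpoints linearly. At the GI50, growth is halved.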 Calls of active or inactive are those of the source. Cut-off read from the data, not from the text of the source: active = GI50 up to about 1.1 µM and inactive = higher.
# Legend:
# Assay in all cases: NCI anticancer screen, dose series, 48 h
# HOP-62 = system: HOP-62
# MCF7 = system: MCF7
# U-251 = system: U-251
# UACC-62 = system: UACC-62
# SF-295 = system: SF-295
# MOLT-4 = system: MOLT-4
# COLO 205 = system: COLO 205
# SN12C = system: SN12C
# SNB-75 = system: SNB-75
# MDA-MB-231 = system: MDA-MB-231
# PC-3 = system: PC-3
# UO-31 = system: UO-31
# HCT-15 = system: HCT-15
# HCC 2998 = system: HCC 2998
# Hs-578T = system: Hs-578T
# RXF 393 = system: RXF 393
# OVCAR-4 = system: OVCAR-4
# T47D = system: T47D
# K562 = system: K562
# 786-0 = system: 786-0
# MDA-MB-435 = system: MDA-MB-435
# SNB-19 = system: SNB-19
# A549 = system: A549
# HT-29 = system: HT-29
# NCI-H460 = system: NCI-H460
# SF-539 = system: SF-539
# HCT-116 = system: HCT-116
# M14 = system: M14
# CAKI-1 = system: CAKI-1
# HL-60 = system: HL-60
# CCRF-CEM = system: CCRF-CEM
# A498 = system: A498
# EKVX = system: EKVX
# NCI/ADR-RES = system: NCI/ADR-RES
# OVCAR-5 = system: OVCAR-5
# KM12 = system: KM12
# SR = system: SR
# OVCAR-3 = system: OVCAR-3
# NCI-H23 = system: NCI-H23
# DU-145 = system: DU-145
# TK-10 = system: TK-10
# MDA-N = system: MDA-N
# HOP-92 = system: HOP-92
# SF-268 = system: SF-268
# NCI-H226 = system: NCI-H226
# OVCAR-8 = system: OVCAR-8
# LOX IMVI = system: LOX IMVI
# SK-MEL-5 = system: SK-MEL-5
# UACC-257 = system: UACC-257
# SK-MEL-2 = system: SK-MEL-2
# Malme-3M = system: Malme-3M
# NCI-H522 = system: NCI-H522
# RPMI-8226 = system: RPMI-8226
# IGROV-1 = system: IGROV-1
# SK-MEL-28 = system: SK-MEL-28
# BT-549 = system: BT-549
# SW-620 = system: SW-620
# ACHN = system: ACHN
# SK-OV-3 = system: SK-OV-3
smiles,measurement,setting,value
CCCCON1C[C@@H](O)C(O)[C@@H](O)C1 (stereo not given in full),GI50,HOP-62,> 100 µM (inactive)
same,GI50,MCF7,> 100 µM (inactive)
same,GI50,U-251,> 100 µM (inactive)
same,GI50,UACC-62,> 100 µM (inactive)
same,GI50,SF-295,> 100 µM (inactive)
same,GI50,MOLT-4,> 100 µM (inactive)
same,GI50,COLO 205,> 100 µM (inactive)
same,GI50,SN12C,> 100 µM (inactive)
same,GI50,SNB-75,> 100 µM (inactive)
same,GI50,MDA-MB-231,> 100 µM (inactive)
same,GI50,PC-3,> 100 µM (inactive)
same,GI50,UO-31,> 100 µM (inactive)
same,GI50,HCT-15,> 100 µM
same,GI50,HCC 2998,> 100 µM (inactive)
same,GI50,Hs-578T,> 100 µM (inactive)
same,GI50,RXF 393,> 100 µM (inactive)
same,GI50,OVCAR-4,> 100 µM (inactive)
same,GI50,T47D,> 100 µM (inactive)
same,GI50,K562,> 100 µM (inactive)
same,GI50,786-0,> 100 µM (inactive)
same,GI50,MDA-MB-435,> 100 µM (inactive)
same,GI50,SNB-19,> 100 µM (inactive)
same,GI50,A549,> 100 µM (inactive)
same,GI50,HT-29,> 100 µM (inactive)
same,GI50,NCI-H460,> 100 µM (inactive)
same,GI50,SF-539,> 100 µM (inactive)
same,GI50,HCT-116,> 100 µM (inactive)
same,GI50,M14,> 100 µM (inactive)
same,GI50,CAKI-1,> 100 µM (inactive)
same,GI50,HL-60,> 100 µM (inactive)
same,GI50,CCRF-CEM,> 100 µM (inactive)
same,GI50,A498,> 100 µM (inactive)
same,GI50,EKVX,> 100 µM (inactive)
same,GI50,NCI/ADR-RES,> 100 µM (inactive)
same,GI50,OVCAR-5,> 100 µM (inactive)
same,GI50,KM12,> 100 µM (inactive)
same,GI50,SR,> 100 µM (inactive)
same,GI50,OVCAR-3,> 100 µM (inactive)
same,GI50,NCI-H23,> 100 µM (inactive)
same,GI50,DU-145,> 100 µM (inactive)
same,GI50,TK-10,> 100 µM (inactive)
same,GI50,MDA-N,> 100 µM (inactive)
same,GI50,HOP-92,> 100 µM (inactive)
same,GI50,SF-268,> 100 µM (inactive)
same,GI50,NCI-H226,> 100 µM (inactive)
same,GI50,OVCAR-8,> 100 µM (inactive)
same,GI50,LOX IMVI,> 100 µM (inactive)
same,GI50,SK-MEL-5,> 100 µM (inactive)
same,GI50,UACC-257,> 100 µM (inactive)
same,GI50,SK-MEL-2,> 100 µM (inactive)
same,GI50,Malme-3M,> 100 µM (inactive)
same,GI50,NCI-H522,> 100 µM (inactive)
same,GI50,RPMI-8226,> 100 µM (inactive)
same,GI50,IGROV-1,> 100 µM (inactive)
same,GI50,SK-MEL-28,> 100 µM (inactive)
same,GI50,BT-549,> 100 µM (inactive)
same,GI50,SW-620,> 100 µM (inactive)
same,GI50,ACHN,> 100 µM (inactive)
CC(=O)Nc1c(C)cc2c(nc3n2CCC3OC(C)=O)c1[N+](=O)[O-] (stereo not given),GI50,MCF7,> 100 µM (inactive)
same,GI50,U-251,> 100 µM (inactive)
same,GI50,UACC-62,> 100 µM (inactive)
same,GI50,SF-295,> 100 µM (inactive)
same,GI50,MOLT-4,> 100 µM (inactive)
same,GI50,COLO 205,> 100 µM (inactive)
same,GI50,SN12C,> 100 µM (inactive)
same,GI50,SNB-75,> 100 µM (inactive)
same,GI50,MDA-MB-231,> 100 µM (inactive)
same,GI50,PC-3,> 100 µM (inactive)
same,GI50,UO-31,> 100 µM (inactive)
same,GI50,HCT-15,> 100 µM
same,GI50,Hs-578T,> 100 µM (inactive)
same,GI50,RXF 393,7.98 µM (inactive)
same,GI50,OVCAR-4,> 100 µM (inactive)
same,GI50,T47D,> 100 µM (inactive)
same,GI50,K562,> 100 µM (inactive)
same,GI50,786-0,> 100 µM (inactive)
same,GI50,MDA-MB-435,> 100 µM (inactive)
same,GI50,SNB-19,> 100 µM (inactive)
same,GI50,A549,> 100 µM (inactive)
same,GI50,HT-29,> 100 µM (inactive)
same,GI50,NCI-H460,> 100 µM (inactive)
same,GI50,SF-539,> 100 µM (inactive)
same,GI50,HCT-116,> 100 µM (inactive)
same,GI50,M14,> 100 µM (inactive)
same,GI50,CAKI-1,> 100 µM (inactive)
same,GI50,HL-60,> 100 µM (inactive)
same,GI50,CCRF-CEM,> 100 µM (inactive)
same,GI50,A498,> 100 µM (inactive)
same,GI50,EKVX,> 100 µM (inactive)
same,GI50,NCI/ADR-RES,> 100 µM (inactive)
same,GI50,OVCAR-5,> 100 µM (inactive)
same,GI50,KM12,> 100 µM (inactive)
same,GI50,SR,> 100 µM (inactive)
same,GI50,OVCAR-3,> 100 µM (inactive)
same,GI50,NCI-H23,> 100 µM (inactive)
same,GI50,DU-145,> 100 µM (inactive)
same,GI50,MDA-N,> 100 µM (inactive)
same,GI50,HOP-92,> 100 µM (inactive)
same,GI50,SF-268,> 100 µM (inactive)
same,GI50,NCI-H226,> 100 µM (inactive)
same,GI50,OVCAR-8,> 100 µM (inactive)
same,GI50,LOX IMVI,> 100 µM (inactive)
same,GI50,SK-MEL-5,> 100 µM (inactive)
same,GI50,UACC-257,> 100 µM (inactive)
same,GI50,SK-MEL-2,> 100 µM (inactive)
same,GI50,Malme-3M,> 100 µM (inactive)
same,GI50,SK-OV-3,> 100 µM (inactive)
same,GI50,NCI-H522,> 100 µM (inactive)
same,GI50,RPMI-8226,> 100 µM (inactive)
same,GI50,IGROV-1,> 100 µM (inactive)
same,GI50,SK-MEL-28,> 100 µM (inactive)
same,GI50,BT-549,> 100 µM (inactive)
same,GI50,SW-620,> 100 µM (inactive)
same,GI50,ACHN,> 100 µM (inactive)
C[N+]1(Cc2ccc(Cl)c(Cl)c2)CCCC1C1CCCN(Cc2ccc(Cl)c(Cl)c2)C1 (stereo not given),GI50,HOP-62,> 100 µM (inactive)
same,GI50,MCF7,> 100 µM (inactive)
same,GI50,U-251,> 100 µM (inactive)
same,GI50,UACC-62,> 100 µM (inactive)
same,GI50,SF-295,> 100 µM (inactive)
same,GI50,MOLT-4,> 100 µM (inactive)
same,GI50,COLO 205,> 100 µM (inactive)
same,GI50,SN12C,> 100 µM (inactive)
same,GI50,SNB-75,> 100 µM (inactive)
same,GI50,MDA-MB-231,> 100 µM (inactive)
same,GI50,PC-3,> 100 µM (inactive)
same,GI50,UO-31,> 100 µM (inactive)
same,GI50,HCT-15,> 100 µM
same,GI50,HCC 2998,> 100 µM (inactive)
same,GI50,Hs-578T,> 100 µM (inactive)
same,GI50,RXF 393,> 100 µM (inactive)
same,GI50,OVCAR-4,> 100 µM (inactive)
same,GI50,T47D,> 100 µM (inactive)
same,GI50,K562,52.4 µM (inactive)
same,GI50,786-0,> 100 µM (inactive)
same,GI50,MDA-MB-435,> 100 µM (inactive)
same,GI50,SNB-19,> 100 µM (inactive)
same,GI50,A549,> 100 µM (inactive)
same,GI50,HT-29,> 100 µM (inactive)
same,GI50,NCI-H460,> 100 µM (inactive)
same,GI50,SF-539,> 100 µM (inactive)
same,GI50,HCT-116,> 100 µM (inactive)
same,GI50,M14,> 100 µM (inactive)
same,GI50,CAKI-1,> 100 µM (inactive)
same,GI50,A498,> 100 µM (inactive)
same,GI50,EKVX,46 µM (inactive)
same,GI50,NCI/ADR-RES,> 100 µM (inactive)
same,GI50,OVCAR-5,> 100 µM (inactive)
same,GI50,KM12,> 100 µM (inactive)
same,GI50,SR,> 100 µM (inactive)
same,GI50,OVCAR-3,> 100 µM (inactive)
same,GI50,NCI-H23,> 100 µM (inactive)
same,GI50,DU-145,> 100 µM (inactive)
same,GI50,TK-10,> 100 µM (inactive)
same,GI50,MDA-N,> 100 µM (inactive)
same,GI50,HOP-92,> 100 µM (inactive)
same,GI50,SF-268,> 100 µM (inactive)
same,GI50,OVCAR-8,> 100 µM (inactive)
same,GI50,LOX IMVI,> 100 µM (inactive)
same,GI50,SK-MEL-5,32.2 µM (inactive)
same,GI50,UACC-257,> 100 µM (inactive)
same,GI50,SK-MEL-2,> 100 µM (inactive)
same,GI50,Malme-3M,82.4 µM (inactive)
same,GI50,SK-OV-3,> 100 µM (inactive)
same,GI50,NCI-H522,> 100 µM (inactive)
same,GI50,RPMI-8226,> 100 µM (inactive)
same,GI50,IGROV-1,70 µM (inactive)
same,GI50,SK-MEL-28,> 100 µM (inactive)
same,GI50,BT-549,> 100 µM (inactive)
same,GI50,SW-620,> 100 µM (inactive)
same,GI50,ACHN,> 100 µM (inactive)

# — ChEMBL document CHEMBL1201862, “PubChem BioAssay data set” (2004)
